Test results taken from patent publication US20110098177A1, “METHODS AND COMPOSITIONS OF PLANT MICRONUTRIENTS” (NOVUS INTERNATIONAL INC., priority 2006, published 2011).

What was measured:
Type in all cases: in vivo
Conditions in all cases: in vivo
Aristotle bell pepper = tested on: Aristotle bell pepper
Method: (§1) The following experiments were performed in a green house during the fall of 2007 at GCREC, Balm, University of Florida. Fifteen products, at 3 different application rates were examined. The plot size was 2-gallon pots. Crop set-up, procedures and variables were as follows.
(§2) Transplants of ‘Florida-47’ tomato and ‘Aristotle’ bell pepper plants in the 4-true leaf stage (about 6 inches tall) were planted in 2-gal pots on Aug. 27, 2007. Pots were filled with a commercially available planting medium. This medium was selected based on the mineral composition of the products to be applied without providing significant nutritional inputs to the crops. Irrigation was provided with drip lines delivering between 0.50 and 0.33 gal/day/pot for tomato and bell pepper, respectively, and the crops were irrigated three times per day. No foliar pesticides were necessary.
(§3) There were four control treatments corresponding to each target micronutrient in which non-Fe, non-Mn, non-Zn or non-Cu pots received all other essential nutrients under non-limiting conditions.
(§4) Treatments were applied at three rates (high, medium and low) obtained from the estimated concentration of Zn, Fe, Cu, and Mn foliarly-applied in tomato and bell pepper in field situations (Table 1). Products were weighed and dissolved in 200 ml of deionized water with a non-ionic surfactant and applied to the newly-matured open leaves of each crop at 3 and 7 weeks after transplant (WAT). Treated pots were isolated during application to avoid cross-contamination of other treatments.
(§5) Medium nutrient concentration was determined 1 week before treatment. The mineral composition of the medium was 26.8 ppm NH4—N, 49 ppm NO3—N, 15.8 ppm P, 91.2 ppm K, 82.3 ppm Ca, 58.2 ppm Mg, 23.9 ppm Na, 125.6 ppm S, 1.33 ppm Fe, 0.39 ppm Mn, 0.35 ppm Zn, 0.05 pp, Cu, 0.04 ppm B, 0 ppm Mo, 0.73 ppm Al, and 12.1 ppm Si. The pH of the medium was 5.36 and the electric conductivity was 1.38 mS/cm. The foliar tissue analysis was performed at 6 WAT and the concentration of N, P, K, Mg, Ca, S, B, Zn, Mn, Fe, and Cu was determined by a commercial laboratory. Plant toxicity was determined at 4 WAT by using a 0-10 visual scale, where 0=no visible damage and 10=total plant death. Marketable fruit weight was collected 2 times in bell pepper and 4 times in tomato following USDA standards.
(§6) Data were analyzed using a general linear model, and means were separated using orthogonal contrasts at the 5% significance level.

Florida-47 tomato = tested on: Florida-47 tomato
Method: as §1, §2, §3, §4, §5, §6

Tygress tomato plants [1] = assay: Foliar nutrient concentration 2 weeks after treatment, greenhouse tomato (Examples 4-6)
Method: (§7) The following experiments were performed in a green house during the fall of 2008 and spring of 2009 at GCREC, Balm, University of Florida. Crop set-up, procedures and variables were as follows.
(§8) Transplants of Tygress' tomato plants were planted in 2-gallon pots filled with commercial planting medium with nutrient concentration of Fe, Zn, Mn, Cu being negligible and insufficient for crop growth. Irrigation and non-micronutrient fertilizer were provided daily through microsprinklers at recommended rates for tomato production in Florida. No pesticides were used. Treatments were as described in Tables 4, 5 and 6 below.
(§9) Treatments were applied at 5 WAT (weeks after transplanting) using a water volume of 200 mL/plant. A non-ionic surfactant was added. Foliar tissue analysis was performed at 3 and 7 WAT on the non-applied newest leaves. The concentrations of N, P, K, Mg, Ca, B, Zn, Mn, Fe, and Cu in the foliar tissue were determined from foliar analysis by a commercial laboratory at 2 weeks before treatment and again at 2 weeks after treatment.
(§10) Deionized water was used for foliar applications, and other nutrients were applied as appropriate under non-limiting conditions. Marketable fruit were collected three times during the growing season, starting at 10 WAT (5 weeks after the initial treatment). Tomato fruit was graded as extra-large, large and medium. Non-marketable fruit were harvested and number and weight recorded but not sized.
(§11) Experimental design was a randomized complete block design with 6 replications. Data were analyzed using a general linear model, and means were separated using an LSD test at the 5% significance level.

Tygress tomato plants [2] = assay: Yields of tomato fruits, greenhouse (Examples 4-6)
Method: as §7, §8, §9, §10, §11

Tygress tomato plants [3] = assay: Foliar nutrient concentration at 6 WAT, open-field tomato (Examples 7-10)
Method: (§12) The following experiments were performed in open-field plots during the spring of 2008 at GCREC, Balm, University of Florida. Four products delivering Zn (BIOX-Z), Mn (BIOX-M), Cu (BIOX-Cu), and Fe (BIOX-Fe) were compared to other micronutrient supplement formulations in tomato and bell pepper plants.
(§13) The plot sizes for the tomato plants were 30-ft plots (15 plants per plot) and 15-ft plots were used for the bell pepper plants (30 plants per plot). Crop set-up, procedures and variables were as follows.
(§14) Transplants of ‘Tygress’ tomato plants and ‘Patriot’ bell pepper plants in the 4-true leaf stage (about 6 inches tall) were planted in raised beds in open-field plots. The cross-section of each raised bed was 28 inches wide at the top, 32 inches wide at the base, and 8 inches tall. Irrigation and non-micronutrient fertilizer were provided daily through two drip lines per bed (0.45 gal/100 ft bed/min) at recommended rates for tomato and bell pepper production in Florida. […] The height of the plants for each of the treatment groups was measured at 3 weeks after transplantation (WAT), just prior to treatment with the experimental foliar fertilizers.
(§15) All foliar fertilizers except BIOX-CM were applied to the various treatment groups at 3 weeks after transplantation (WAT) and again at 5 WAT. The BIOX-CM treatment was applied at 4 and 5 WAT. The working water volume was 60 gal/acre and a non-ionic surfactant (Ad-Spray 80) was added in the amount of 2 pints/100 gal water. All plots were sprayed with sprayers pressurized at 25 psi and the canopies of both crops were covered with the micronutrient solutions. Treated plots were isolated during foliar fertilizer application to avoid the cross-contamination of other treatments on adjoining plots.
(§16) Leaf samples were collected from the most recent mature leaves from each plant at 6 WAT (2 weeks after initial treatment). Foliar tissue analysis was performed by a commercial laboratory to determine the concentration of N, P, K, Mg, Ca, B, Zn, Mn, Fe, and Cu. Tomato marketable fruit weights were collected at 10 and 12 WAT, and the fruits were graded according to USDA standards. Pepper marketable fruit weights were determined beginning at 5 WAT over 5 weekly harvests. Fruit mineral analysis (N, P, K, Mg, Ca, B, Zn, Mn, Fe, and Cu) was performed on samples from the tomato harvest.
(§17) The experimental design was a randomized complete block design with 5 replications for each treatment. All comparison data were analyzed using a general linear model and the means of each treatment were separated with a Fisher's protected LSD test at the 5% significance level.

[4] = tested on: Patriot bell pepper plants; assay: Foliar nutrient concentration at 6 WAT, open-field bell pepper (Examples 7-10)
Method: as §12, §13, §14, §15, §16, §17

Tygress tomato plants [5] = assay: Marketable yield, open-field tomato (Examples 7-10)
Method: as §12, §13, §14, §15, §16, §17

[6] = tested on: Patriot bell pepper plants; assay: Marketable yield, open-field bell pepper (Examples 7-10)
Method: as §12, §13, §14, §15, §16, §17

Tygress tomato plants [7] = assay: Nutrient concentration of tomato fruits at 10 WAT, open field (Examples 7-10)
Method: as §12, §13, §14, §15, §16, §17

O=S(=O)([O-])[O-].[Zn+2] [BIOX-INZ, zinc sulfate]
Pepper toxicity (Aristotle bell pepper): 0 | Tomato toxicity (Florida-47 tomato): 0 | B concentration in tomato leaves (Tygress tomato plants [1]): 24 ppm | Cu concentration in tomato leaves (Tygress tomato plants [1]): 5 ppm | Fe concentration in tomato leaves (Tygress tomato plants [1]): 97 ppm | Foliar Zn concentration (Tygress tomato plants [1]): 768 a ppm | K concentration in tomato leaves (Tygress tomato plants [1]): 3.5% | Mg concentration in tomato leaves (Tygress tomato plants [1]): 0.3% | Mn concentration in tomato leaves (Tygress tomato plants [1]): 55 ppm | N concentration in tomato leaves (Tygress tomato plants [1]): 3.6% | P concentration in tomato leaves (Tygress tomato plants [1]): 0.4% | Marketable yield (Tygress tomato plants [2]): 3.7 a lb/plant | Foliar B concentration of tomato plants (Tygress tomato plants [3]): 41 ppm | Foliar Cu concentration of tomato plants (Tygress tomato plants [3]): 358 ppm | Foliar Fe concentration of tomato plants (Tygress tomato plants [3]): 71 ppm | Foliar K concentration of tomato plants (Tygress tomato plants [3]): 5.7% | Foliar Mg concentration of tomato plants (Tygress tomato plants [3]): 0.58% | Foliar Mn concentration of tomato plants (Tygress tomato plants [3]): 231 ppm | Foliar N concentration of tomato plants (Tygress tomato plants [3]): 4.8% | Foliar P concentration of tomato plants (Tygress tomato plants [3]): 0.18% | Foliar Zn concentration of tomato plants (Tygress tomato plants [3]): 323 ab ppm | Foliar Zn concentration of tomato plants, statement (Tygress tomato plants [3]): highest foliar concentration of Zn | Foliar B concentration of bell pepper plants [4]: 57 ppm | Foliar Cu concentration of bell pepper plants [4]: 385 ppm | Foliar Fe concentration of bell pepper plants [4]: 116 ppm | Foliar K concentration of bell pepper plants [4]: 3.2% | Foliar Mg concentration of bell pepper plants [4]: 0.53% | Foliar Mn concentration of bell pepper plants [4]: 303 ppm | Foliar N concentration of bell pepper plants [4]: 3.9% | Foliar P concentration of bell pepper plants [4]: 0.22% | Foliar Zn concentration of bell pepper plants [4]: 64 b ppm | Marketable yield, Tomato (Tygress tomato plants [5]): 15.6 ton/acre | Marketable yield, Bell Pepper [6]: 6.9 ton/acre | B concentration of tomato fruits (Tygress tomato plants [7]): 21 ppm | Cu concentration of tomato fruits (Tygress tomato plants [7]): 21 ppm | Fe concentration of tomato fruits (Tygress tomato plants [7]): 85 ppm | K concentration of tomato fruits (Tygress tomato plants [7]): 7.5% | Mg concentration of tomato fruits (Tygress tomato plants [7]): 0.34% | Mn concentration of tomato fruits (Tygress tomato plants [7]): 38 ppm | N concentration of tomato fruits (Tygress tomato plants [7]): 4.2% | P concentration of tomato fruits (Tygress tomato plants [7]): 0.59% | Zn concentration of tomato fruits (Tygress tomato plants [7]): 496 ppm
